# Columns and labels:
# [1] = system: intragastric pH; assay: Phase I: plasma concentration of linaprazan vs. intragastric pH; format: in vivo, human; settings: Phase I studies
# Text: The plasma concentration of linaprazan glurate is only very low and difficult to determine, but the plasma concentration of linaprazan may be determined instead.
# [2] = system: intragastric pH; assay: 48-hour intragastric pH-metry, Phase 1 exploratory dose-finding study in healthy subjects; format: in vivo, human; settings: for Hours with pH >4 (Mean (SD)) / Hours with pH >4 (Median (min, max)) / Percentage of time with pH >4 (Mean) / Percentage of time with pH >4 (Median (min, max)): healthy subjects
# Text: The study was a single-centre, open-label, parallel-group, randomised exploratory dose-finding study designed to evaluate the PK, PD, safety and tolerability of repeated oral doses of linaprazan glurate (LG) at 3 dose levels, in healthy male and female subjects. About 36 subjects were randomised for an estimated total of 12 evaluable subjects per treatment arm.
# Subjects came to the clinic for 3 visits. The screening (Visit 1) took place from Day −28 to Day −1 and included an eligibility check and review of health status. At Visit 2, subjects were admitted to the clinic on Day −1 and remained at the clinic until Day 4 for repeated dose of LG administration and safety, PK and PD assessments. The subjects fasted for at least 8 hours before the anticipated dosing time on Day 1. Water, but no other drinks, was allowed as desired except for 1 hour before and 30 minutes after dosing. In the morning of Day 1, subjects were randomised to one of 3 treatment arms: • LG 50 mg BID for 3 days (5 doses, last dose in the morning of Day 3) • LG 100 mg (2×50 mg) BID for 3 days (5 doses, last dose in the morning of Day 3) • LG 150 mg (3×50 mg) BID for 3 days (5 doses, last dose in the morning of Day 3)
# Subjects were carefully monitored by clinical staff during and after dosing. […] The pH-metry assessment was started prior to Dose 3 (in the morning of Day 2) and continued for 48 hours, until 24 hours post last dose. Vital signs and ECG were checked at regular intervals and PK sampling was done at selected timepoints. A final end-of-study visit (Visit 3) took place on Day 7 (±2) or after early withdrawal. Each subject was expected to participate in the study for approximately 7 days from the day of randomisation (Day 1, Visit 2) to the End-of Study Visit. The Screening Visit was performed within 28 days prior to randomisation (Day −28 to Day −1).
# [3] = background statement; cited from earlier work
# [4] = 50 mg LG, 1 last dose in the morning (Day 3, "QD")
# [5] = 50 mg LG, 2 doses (Day 2, BID), oral
# [6] = 100 mg LG, 1 last dose in the morning (Day 3, "QD")
# [7] = 100 mg LG, 2 doses (Day 2, BID), oral
# [8] = 150 mg LG, 1 last dose in the morning (Day 3, "QD")
# [9] = 150 mg LG, 2 doses (Day 2, BID), oral
# [10] = 100 or 150 mg, two daily doses (Day 2) vs once daily (Day 3)
smiles,measurement,setting,value
"Cc1cccc(C)c1CNc1cc(C(=O)NCCOC(=O)CCCC(=O)O)cn2c(C)c(C)nc12 [linaprazan glurate, 5-{2-[({8-[(2,6-dimethylbenzyl)amino]-2,3-dimethylimidazo[1,2-a]pyridine-6-yl}carbonyl)-amino]ethoxy}-5-oxopentanoic acid]",pH control,[1],dose dependent
same,Hours with pH >4 (Mean (SD)),[2]; [4],17.04 (5.33) hours
same,"Hours with pH >4 (Median (min, max))",[2]; [4],"15.80 (6.8, 23.8) hours"
same,Percentage of time with pH >4 (Mean),[2]; [4],71.15%
same,"Percentage of time with pH >4 (Median (min, max))",[2]; [4],"65.90 (28.6, 99.8) %"
same,Hours with pH >4 (Mean (SD)),[2]; [5],15.47 (4.83) hours
same,"Hours with pH >4 (Median (min, max))",[2]; [5],"15.65 (8.5, 23.8) hours"
same,Percentage of time with pH >4 (Mean),[2]; [5],64.48%
same,"Percentage of time with pH >4 (Median (min, max))",[2]; [5],"65.20 (35.4, 99.1) %"
same,Hours with pH >4 (Mean (SD)),[2]; [6],18.38 (3.84) hours
same,"Hours with pH >4 (Median (min, max))",[2]; [6],"19.30 (11.6, 23.5) hours"
same,Percentage of time with pH >4 (Mean),[2]; [6],76.81%
same,"Percentage of time with pH >4 (Median (min, max))",[2]; [6],"80.50 (48.9, 97.8) %"
same,Hours with pH >4 (Mean (SD)),[2]; [7],18.93 (4.83) hours
same,"Hours with pH >4 (Median (min, max))",[2]; [7],"21.30 (7.0, 22.8) hours"
same,Percentage of time with pH >4 (Mean),[2]; [7],78.85%
same,"Percentage of time with pH >4 (Median (min, max))",[2]; [7],"88.70 (29.1, 95.0) %"
same,Hours with pH >4 (Mean (SD)),[2]; [8],20.38 (3.51) hours
same,"Hours with pH >4 (Median (min, max))",[2]; [8],"21.05 (15.5, 24.0) hours"
same,Percentage of time with pH >4 (Mean),[2]; [8],85.14%
same,"Percentage of time with pH >4 (Median (min, max))",[2]; [8],"88.00 (64.9, 99.8) %"
same,Hours with pH >4 (Mean (SD)),[2]; [9],22.00 (2.60) hours
same,"Hours with pH >4 (Median (min, max))",[2]; [9],"23.05 (16.6, 24.0) hours"
same,Percentage of time with pH >4 (Mean),[2]; [9],91.64%
same,"Percentage of time with pH >4 (Median (min, max))",[2]; [9],"96.05 (69.3, 99.8) %"
same,"additional hours with pH>4 (median), BID vs QD",[2]; [10],about two
same,"longer time with pH>4, BID vs QD",[2]; [10],about 10%
same,plasma half-life,[3],approximately 10 hours
